In PubChem BioAssay AID328 (DTP/NCI, 2004):
Values joined by “and” are separate entries in the source; they are usually repeats but may differ in a detail not shown here. Identical values can stand only once. Inconclusive results and toxic doses are left out. Non-standard residues stand in square brackets, D forms with d. Residues, ends and D or L forms follow the SMILES beside them. ξ: configuration not given here. ξK = NCCCCC(N)C(=O)O

Test system: BDF1 mice, P388 leukemia ip, median survival T/C
Test: NCI In Vivo Anticancer Drug Screen. Data for tumor model P388 Leukemia (intraperitoneal) in B6D2F1 (BDF1) mice
Details: endpoint: median survival time, higher = longer survival
Outline: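 Mice carrying the transplantable tumour receive compound or vehicle. Survival is followed in each arm, and the treated measure is divided by the vehicle measure.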

[1] = dose: 100.0 mg/kg/injection, schedule: Q04DX003 (ip), vehicle: Klucel (hydroxypropylcellulose) (HPC)
[2] = dose: 200.0 mg/kg/injection, schedule: Q04DX003 (ip), vehicle: Klucel (hydroxypropylcellulose) (HPC)
[3] = dose: 400.0 mg/kg/injection, schedule: Q04DX003 (ip), vehicle: Klucel (hydroxypropylcellulose) (HPC)
[4] = dose: 12.5 mg/kg/injection, schedule: Q04DX003 (ip), vehicle: saline
[5] = dose: 25.0 mg/kg/injection, schedule: Q04DX003 (ip), vehicle: saline
[6] = dose: 100.0 mg/kg/injection, schedule: Q01DX001 (ip), vehicle: Klucel (hydroxypropylcellulose) (HPC)
[7] = dose: 200.0 mg/kg/injection, schedule: Q01DX001 (ip), vehicle: Klucel (hydroxypropylcellulose) (HPC)
[8] = dose: 400.0 mg/kg/injection, schedule: Q01DX001 (ip), vehicle: Klucel (hydroxypropylcellulose) (HPC)
[9] = dose: 50.0 mg/kg/injection, schedule: Q01DX009 (ip), vehicle: saline with Tween-80
[10] = dose: 100.0 mg/kg/injection, schedule: Q01DX009 (ip), vehicle: saline with Tween-80
[11] = dose: 200.0 mg/kg/injection, schedule: Q01DX009 (ip), vehicle: saline with Tween-80
[12] = dose: 25.0 mg/kg/injection, schedule: Q01DX009 (ip), vehicle: saline with Tween-80
[13] = dose: 400.0 mg/kg/injection, schedule: Q01DX009 (ip), vehicle: saline with Tween-80

C[C@]1(O)CC[C@H]2[C@@H]3CCC4=CC(=O)CC[C@]4(C)[C@@]3(F)[C@@H](O)C[C@@]21C
T/C [1]: 100 % of control | T/C [2]: 95 % of control | T/C [3]: 95 % of control

CCCCCCCCCC(=O)CCCCC
T/C (dose: 100.0 mg/kg/injection, schedule: Q04DX003 (ip), vehicle: other): 109 % of control | T/C (dose: 200.0 mg/kg/injection, schedule: Q04DX003 (ip), vehicle: other): 109 % of control | T/C (dose: 400.0 mg/kg/injection, schedule: Q04DX003 (ip), vehicle: other): 113 % of control

Cc1c(C(=O)CCl)c(=O)n(-c2ccccc2)n1C
T/C (dose: 25.0 mg/kg/injection, schedule: Q01DX009 (ip), vehicle: Klucel (hydroxypropylcellulose) (HPC)): 100 % of control | T/C (dose: 25.0 mg/kg/injection, schedule: Q04DX003 (ip), vehicle: Klucel (hydroxypropylcellulose) (HPC)): 96 % of control | T/C (dose: 50.0 mg/kg/injection, schedule: Q01DX009 (ip), vehicle: Klucel (hydroxypropylcellulose) (HPC)): 104 % of control | T/C (dose: 50.0 mg/kg/injection, schedule: Q04DX003 (ip), vehicle: Klucel (hydroxypropylcellulose) (HPC)): 100 % of control | T/C (dose: 100.0 mg/kg/injection, schedule: Q01DX009 (ip), vehicle: Klucel (hydroxypropylcellulose) (HPC)): 91 % of control | T/C [1]: 100 % of control and 103 % of control

Cn1cnc([N+](=O)[O-])c1[Se]c1ncnc2c1c(C#N)cn2C1OC(CO)C(O)C1O (centres undefined)
T/C (dose: 6.25 mg/kg/injection, schedule: Q04DX003 (ip), vehicle: saline): 93 % of control | T/C [4]: 119 % of control | T/C [5]: 102 % of control

C=CCN(CC=C)c1ccc(N(CC)CC)cc1
T/C [6]: 87 % of control | T/C [7]: 95 % of control | T/C [8]: 100 % of control

O=c1ccc2cc(-c3ccncc3)cnc2[nH]1
T/C (dose: 100.0 mg/kg/injection, schedule: Q04DX002 (ip), vehicle: saline with Tween-80): 108 % of control

CC(=O)O/N=C(/C)c1ccccc1
T/C (dose: 25.0 mg/kg/injection, schedule: Q04DX003 (ip), vehicle: saline sonified): 100 % of control | T/C (dose: 50.0 mg/kg/injection, schedule: Q04DX003 (ip), vehicle: saline sonified): 100 % of control | T/C (dose: 100.0 mg/kg/injection, schedule: Q04DX003 (ip), vehicle: saline sonified): 100 % of control

N=P(N[P+](N)(c1ccccc1)c1ccccc1)(c1ccccc1)c1ccccc1
T/C (dose: 6.25 mg/kg/injection, schedule: Q01DX001 (ip), vehicle: saline): 117 % of control | T/C (dose: 8.2 mg/kg/injection, schedule: Q01DX001 (ip), vehicle: saline): 100 % of control | T/C (dose: 12.5 mg/kg/injection, schedule: Q01DX001 (ip), vehicle: saline): 100 % of control | T/C (dose: 18.0 mg/kg/injection, schedule: Q01DX001 (ip), vehicle: saline): 104 % of control | T/C (dose: 25.0 mg/kg/injection, schedule: Q01DX001 (ip), vehicle: saline): 116 % of control

COc1cccc2c1C(=O)c1c(O)c3c(c(O)c1C2=O)C[C@@](O)(/C(C)=N\O)C[C@@H]3OC1CC(N)C(O)C(C)O1 (some centres undefined)
T/C (dose: 1.56 mg/kg/injection, schedule: Q01DX009 (ip), vehicle: water): 112 % of control | T/C (dose: 3.12 mg/kg/injection, schedule: Q01DX009 (ip), vehicle: water): 105 % of control | T/C (dose: 6.25 mg/kg/injection, schedule: Q01DX009 (ip), vehicle: water): 161 % of control | T/C (dose: 12.5 mg/kg/injection, schedule: Q01DX009 (ip), vehicle: water): 210 % of control | T/C (dose: 25.0 mg/kg/injection, schedule: Q01DX009 (ip), vehicle: water): 103 % of control

CC1=CC(O)(C2(O)C=C(C)CC(C)(C)C2)CC(C)(C)C1 (centres undefined)
T/C (dose: 100.0 mg/kg/injection, schedule: Q01DX009 (ip), vehicle: other): 94 % of control | T/C (dose: 200.0 mg/kg/injection, schedule: Q01DX009 (ip), vehicle: other): 108 % of control | T/C (dose: 400.0 mg/kg/injection, schedule: Q01DX009 (ip), vehicle: other): 103 % of control

O=N[O-].[Co].[NH2-].[NH2-].[NH2-].[NH2-].[NH2-]
T/C [4]: 95 % of control | T/C [5]: 100 % of control | T/C (dose: 50.0 mg/kg/injection, schedule: Q04DX003 (ip), vehicle: saline): 100 % of control

NCCCCC(N)C(=O)NCC(=O)O (centres undefined) (H-[ξK]-Gly-OH)
T/C (dose: 50.0 mg/kg/injection, schedule: Q01DX005 (ip), vehicle: saline): 95 % of control | T/C (dose: 100.0 mg/kg/injection, schedule: Q01DX005 (ip), vehicle: saline): 102 % of control | T/C (dose: 200.0 mg/kg/injection, schedule: Q01DX005 (ip), vehicle: saline): 88 % of control

COc1ccc(Oc2nc(=O)n3ccccc3n2)cc1
T/C [9]: 93 % of control | T/C [10]: 90 % of control | T/C [11]: 88 % of control

O=C1/C(=C/c2ccc(Cl)cc2)SC(=S)N1CCCN1CCOCC1
T/C [9]: 91 % of control | T/C [10]: 88 % of control | T/C [11]: 91 % of control

CC(C)(C)CC(=O)OCCC[N+](C)(C)[O-]
T/C (dose: 100.0 mg/kg/injection, schedule: Q01DX005 (ip), vehicle: water): 100 % of control | T/C (dose: 200.0 mg/kg/injection, schedule: Q01DX005 (ip), vehicle: water): 100 % of control

CC(C)=CCc1cc(O)ccc1O
T/C (dose: 6.25 mg/kg/injection, schedule: Q01DX009 (ip), vehicle: saline with Tween-80): 108 % of control | T/C [12]: 112 % of control | T/C [9]: 101 % of control

Cc1ccc(N=C(c2ccccc2)c2ccc([N+](=O)[O-])cc2)cc1
T/C [6]: 108 % of control | T/C [7]: 100 % of control | T/C [8]: 104 % of control

C=CCCCCCCCCC(=O)NCc1nc2ccccc2[nH]1
T/C [10]: 100 % of control | T/C [11]: 109 % of control | T/C [13]: 95 % of control

Cc1cc(S(=O)(=O)c2ccc(Cl)cc2)nc(S(=O)(=O)c2ccc(Cl)cc2)c1C#N
T/C (dose: 50.0 mg/kg/injection, schedule: Q01DX005 (ip), vehicle: saline with Tween-80): 110 % of control | T/C (dose: 100.0 mg/kg/injection, schedule: Q01DX005 (ip), vehicle: saline with Tween-80): 110 % of control

COc1cc(C)ccc1C(=O)c1ccc(C)cc1OC
T/C [1]: 90 % of control | T/C [2]: 90 % of control | T/C [3]: 109 % of control

CC(C)COC(=O)c1cc(O)c(O)c(O)c1
T/C [12]: 95 % of control | T/C [9]: 91 % of control | T/C [10]: 112 % of control | T/C (dose: 100.0 mg/kg/injection, schedule: Q04DX003 (ip), vehicle: saline with Tween-80): 105 % of control | T/C [11]: 103 % of control | T/C (dose: 200.0 mg/kg/injection, schedule: Q04DX003 (ip), vehicle: saline with Tween-80): 115 % of control | T/C [13]: 103 % of control | T/C (dose: 400.0 mg/kg/injection, schedule: Q04DX003 (ip), vehicle: saline with Tween-80): 115 % of control

C(=N/Nc1ccccn1)/c1cccnc1
T/C (dose: 25.0 mg/kg/injection, schedule: Q01DX001 (ip), vehicle: saline with Tween-80): 100 % of control | T/C (dose: 50.0 mg/kg/injection, schedule: Q01DX001 (ip), vehicle: saline with Tween-80): 98 % of control | T/C (dose: 100.0 mg/kg/injection, schedule: Q01DX001 (ip), vehicle: saline with Tween-80): 100 % of control

COc1cccc(CCC(=O)O)c1OC
T/C (dose: 25.0 mg/kg/injection, schedule: Q04DX003 (ip), vehicle: water): 109 % of control | T/C (dose: 50.0 mg/kg/injection, schedule: Q04DX003 (ip), vehicle: water): 101 % of control | T/C (dose: 100.0 mg/kg/injection, schedule: Q04DX003 (ip), vehicle: water): 111 % of control | T/C (dose: 200.0 mg/kg/injection, schedule: Q04DX003 (ip), vehicle: water): 103 % of control | T/C (dose: 400.0 mg/kg/injection, schedule: Q04DX003 (ip), vehicle: water): 94 % of control
